Target: T1, full length human TPH1 (Homo sapiens, UniProt P17752)
T1 construct: To generate the enzyme, full length human TPH1 is cloned into the plasmid pET20b(+); made in house; host or cells: E. coli
T1 sequence (P17752 1-444): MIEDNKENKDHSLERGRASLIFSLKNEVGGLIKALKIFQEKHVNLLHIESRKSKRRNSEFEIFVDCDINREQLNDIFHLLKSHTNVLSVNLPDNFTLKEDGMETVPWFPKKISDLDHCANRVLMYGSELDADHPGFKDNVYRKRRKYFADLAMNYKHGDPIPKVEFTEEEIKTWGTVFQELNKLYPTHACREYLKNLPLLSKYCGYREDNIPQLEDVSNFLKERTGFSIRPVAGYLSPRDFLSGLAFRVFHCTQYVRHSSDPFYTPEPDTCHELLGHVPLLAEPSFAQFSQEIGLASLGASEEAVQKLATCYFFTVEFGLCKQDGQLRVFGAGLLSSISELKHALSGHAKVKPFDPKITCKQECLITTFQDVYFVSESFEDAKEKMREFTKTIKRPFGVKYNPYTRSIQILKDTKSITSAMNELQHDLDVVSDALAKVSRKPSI
Assay: Biochemical in vitro assay using fluorescence readout (TPH1 enzyme activity)
Conditions: Table 1, mean where determined several times
Method in brief: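 IC50 (mean of repeats) derived from 5-hydroxy-L-tryptophan fluorescence at 540 nm (300 nm excitation) relative to vehicle, after perchloric acid stop. Reaction: 60 min, 15° C., pH 7.6 Tris-HCl, 40 μM L-tryptophan, 100 μM 6-methyltetrahydropterine, DTT, catalase, with 40-80 nM purified full-length human TPH1 from E. coli.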

IC50	SMILES
0.014 µM	Cc1nc(C)c(C2c3c(nc4n3CCCC4)CCN2C(=O)COc2ccc(N3CCCS3(=O)=O)nc2Cl)s1 (stereo not shown) [Example 1.10.14, 2-((2-chloro-6-(1,1-dioxidoisothiazolidin-2-yl)pyridin-3-yl)oxy)-1-(1-(2,4-dimethylthiazol-5-yl)-3,4,6,7,8,9-hexahydroimidazo[1,2-a:5,4-c′]dipyridin-2(1H)-yl)ethanone]
0.008 µM	CCc1nc(C(=O)NC2CC2)ccc1OCC(=O)N1CCc2nc3n(c2C1c1sc(C)nc1C)CCCC3 (stereo not shown) [Example 1.10.15, N-cyclopropyl-5-(2-(1-(2,4-dimethylthiazol-5-yl)-3,4,6,7,8,9-hexahydroimidazo[1,2-a:5,4-c′]dipyridin-2(1H)-yl)-2-oxoethoxy)-6-ethylpicolinamide]
0.006 µM	CCc1nc(NS(C)(=O)=O)ccc1OCC(=O)N1CCc2nc3n(c2[C@@H]1c1sc(C)nc1C)CCCC3 [Example 1.10.16, (R)-N-(5-(2-(1-(2,4-dimethylthiazol-5-yl)-3,4,6,7,8,9-hexahydroimidazo[1,2-a:5,4-c′]dipyridin-2(1H)-yl)-2-oxoethoxy)-6-ethylpyridin-2-yl)methanesulfonamide]
0.005 µM	CCc1nc(C(=O)NC2CC2)ccc1OCC(=O)N1CCc2nc3n(c2[C@@H]1c1sc(C)nc1C)CCCC3 [Example 1.10.17, (R)-N-cyclopropyl-5-(2-(1-(2,4-dimethylthiazol-5-yl)-3,4,6,7,8,9-hexahydroimidazo[1,2-a:5,4-c′]dipyridin-2(1H)-yl)-2-oxoethoxy)-6-ethylpicolinamide]
0.121 µM	CCc1nc(NS(C)(=O)=O)ncc1OCC(=O)N1CCc2nc3n(c2C1c1sc(C)nc1C)CCCC3 (stereo not shown) [Example 1.10.18, N-(5-(2-(1-(2,4-dimethylthiazol-5-yl)-3,4,6,7,8,9-hexahydroimidazo[1,2-a:5,4-c′]dipyridin-2(1H)-yl)-2-oxoethoxy)-4-ethylpyrimidin-2-yl)methanesulfonamide]

More lines, now with the values behind:

SMILES	IC50
Cc1nc(C)c(C2c3c(nc4n3CCCC4)CCN2C(=O)COc2ccc(N3CCN(C)CC3)nc2Cl)s1 (stereo not shown) [Example 1.10.9, 2-((2-chloro-6-(4-methylpiperazin-1-yl)pyridin-3-yl)oxy)-1-(1-(2,4-dimethylthiazol-5-yl)-3,4,6,7,8,9-hexahydroimidazo[1,2-a:5,4-c′]dipyridin-2(1H)-yl)ethanone]	0.017 µM
Cc1nc(C)c(C2c3c(nc4n3CCCC4)CCN2C(=O)COc2ccc(C#N)cc2Cl)s1 (stereo not shown) [Example 1.10.10, 3-chloro-4-(2-(1-(2,4-dimethylthiazol-5-yl)-3,4,6,7,8,9-hexahydroimidazo[1,2-a:5,4-c′]dipyridin-2(1H)-yl)-2-oxoethoxy)benzonitrile]	0.207 µM
Cc1nc(C)c(C2c3c(nc4n3CCCC4)CCN2C(=O)COc2ccc(C(F)(F)F)cc2Cl)s1 (stereo not shown) [Example 1.10.11, 2-(2-chloro-4-(trifluoromethyl)phenoxy)-1-(1-(2,4-dimethylthiazol-5-yl)-3,4,6,7,8,9-hexahydroimi-dazo[1,2-a:5,4-c′]dipyridin-2(1H)-yl)ethanone]	0.132 µM
Cc1nc(C)c(C2c3c(nc4n3CCCC4)CCN2C(=O)COc2ccc(N(C)S(C)(=O)=O)nc2Cl)s1 (stereo not shown) [Example 1.10.12, N-(6-chloro-5-(2-(1-(2,4-dimethylthiazol-5-yl)-3,4,6,7,8,9-hexahydroimidazo[1,2-a:5,4-c′]dipyridin-2(1H)-yl)-2-oxoethoxy)pyridin-2-yl)-N-methylmethanesulfonamide]	0.02 µM
CCc1nc(NS(C)(=O)=O)ccc1OCC(=O)N1CCc2nc3n(c2C1c1sc(C)nc1C)CCCC3 (stereo not shown) [Example 1.10.13, N-(5-(2-(1-(2,4-dimethylthiazol-5-yl)-3,4,6,7,8,9-hexahydroimidazo[1,2-a:5,4-c′]dipyridin-2(1H)-yl)-2-oxoethoxy)-6-ethylpyridin-2-yl)methanesulfonamide]	0.008 µM
